Values of other authors as cited in US20240335377A1, “COMPOSITION AND METHODS OF TREATMENT USING TRANSDERMAL SUPPLEMENTATION” (Xygenyx Inc., priority 2023, published 2024).
Where a SMILES comes first, the peptide text is derived from it. [ ]: non-standard residue; d: D form. Cit = NC(=O)NCCC[C@H](N)C(=O)O

Columns and labels:
[1] = test system: wide dynamic range neurons in the ventroposterolateral nucleus of the thalamus
skin [2] = settings: topical formulations, within four weeks of treatment
[3] = α-tocopherol taken as 1.0
markers of inflammation = settings: supplementation, individuals with metabolic syndrome
[4] = in vivo
skin [5] = settings: single penetration enhancer
skin [6] = settings: topical, concentrations 0.5-5%
F2-isoprostane = settings: large doses of 1600-3200 IU/day
[7] = dietary supplementation, doses up to 400 IU/day
rheumatoid arthritis = rheumatoid arthritis study
[8] = even when dietary intake occurs in equal portions

CCCCCc1cc(O)c2c(c1)OC(C)(C)[C@@H]1CCC(C)=C[C@@H]21 [THC, Δ-9-tetrahydrocannabinol]
power in mediating pain relative to morphine [1]: ten times more powerful than morphine

CC[C@H](C)[C@H](NC(=O)[C@H](CC(=O)O)NC(=O)[C@@H](N)CCCCN)C(=O)N[C@@H](CCCNC(N)=O)C(N)=O [tripeptide-10 citrulline, Tripeptide-10 citrulline] (H-KDI[Cit]-NH2)
improvement of suppleness (skin [2]): ≤ 54%

Cc1cc(O)cc2c1OC(C)(CCCC(C)CCCC(C)CCCC(C)C)CC2 (stereo not shown) [δ-tocopherol]
relative biological activity [3]: 0.03
markers of inflammation in the blood (markers of inflammation): reduced markers of inflammation

Cc1cc(O)c(C)c2c1OC(C)(CCCC(C)CCCC(C)CCCC(C)C)CC2 (stereo not drawn) [β-tocopherol]
relative biological activity [3]: 0.5

HGH: hormone comprising a peptide chain that is synthesized in the pituitary gland
biological half-life [4]: 10-20 minutes

CC12CCC(CC1)C(C)(C)O2 [eucalyptol, Eucalyptol]
increase of transdermal drug uptake (factor) (skin [5]): more than 10

C=CCCCCCCCCC(=O)N[C@@H](Cc1ccccc1)C(=O)O [UP, Undecylenoyl phenylalanine]
time to skin lightening effects (skin [6]): ≥ 7 days

Cc1c(C)c2c(c(C)c1O)CCC(C)(CCCC(C)CCCC(C)CCCC(C)C)O2 (stereo not drawn) [α-tocopherol]
blood plasma concentration of F2-isoprostane (F2-isoprostane): significantly lower
reduction of risk of coronary disease [7]: up to 34%
reduction of risk of developing neurodegenerative diseases such as Alzheimer's Syndrome or dementia ([7]; controlled trials): ≤ 24%

C/C(=C\CO)CCC[C@H](C)CCC[C@H](C)CCCC(C)C [phytol, Phytol]
solubility in water: nearly insoluble in water

C=C1CC/C=C(\C)CC[C@@H]2[C@@H]1CC2(C)C [β-caryophyllene]
swelling of joints and lymph nodes, circulating and articular leukocytes (rheumatoid arthritis): reduced swelling of joints and lymph nodes as well as the number of circulating and articular leukocytes

Cc1c(O)cc2c(c1C)OC(C)(CCCC(C)CCCC(C)CCCC(C)C)CC2 (stereo not shown) [γ-tocopherol]
relative biological activity [3]: 0.1
concentration in vivo relative to α-tocopherol [8]: roughly 10%

CC1CCC(C(C)C)C(O)C1 (stereo not shown) [Menthol]
increase of transdermal drug uptake (factor) (skin [5]): ≥ 10
